For ten molecules, TGI and GI50 results are on record in PubChem BioAssay (NCI).

Test systems include HOP-62 NSCLC; K-562 leukemia; U251 CNS; PC-3 prostate; HL-60(TB) leukemia; HCT-116 colon; IGROV1 ovarian; HS 578T breast; UACC-257 melanoma; SK-MEL-5 melanoma.
Common to all, as to experiment: inhibition of tumour cell growth, NCI panel, 48 h

Molecules are shown by their SMILES. Values joined by “and” are separate entries in the source; they are usually repeats but may differ in a detail not shown here. Equal entries are not always repeated.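 Briefly, cells in 96-well plates were exposed to five compound concentrations for 48 h, and endpoints were estimated by linear interpolation. The concentration for 50% growth inhibition is given as GI50. Definition used: TGI = concentration required for complete inhibition of growth.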

In the case of `FC(F)(F)c1cccc(COCCN2CCN(Cc3cccc(C(F)(F)F)c3)CC2)c1`, the TGI with HOP-62 NSCLC was 42.1 µM; in the assay on K-562 leukemia, more than 100 µM; with U251 CNS it was 34.5 µM; in the assay with PC-3 prostate, 21.7 µM; in the assay with HL-60(TB) leukemia it was more than 100 µM; with HCT-116 colon, 34.9 µM. Besides, the TGI in the assay with IGROV1 ovarian is 30.3 µM; in the assay with HS 578T breast it was 38.2 µM; with UACC-257 melanoma, 35.5 µM; in the assay with SK-MEL-5 melanoma, 29.4 µM.

Turning to `Cc1ccccc1C(=O)C#Cc1cn(C2CC(O)C(CO)O2)c(=O)[nH]c1=O` (stereo unspecified), the TGI in the assay with HOP-62 NSCLC, with K-562 leukemia, in the assay with U251 CNS, in the assay on PC-3 prostate, in the assay on HL-60(TB) leukemia and in the assay on HCT-116 colon was more than 100 µM in each case. For the same molecule, the TGI in the assay on IGROV1 ovarian, with HS 578T breast, in the assay with UACC-257 melanoma and in the assay with SK-MEL-5 melanoma was more than 100 µM each time.

For `NCCCC(=O)Nc1ccncc1`, the GI50 with HOP-62 NSCLC, with K-562 leukemia, in the assay with U251 CNS, in the assay on PC-3 prostate, in the assay on HL-60(TB) leukemia and with HCT-116 colon was more than 100 µM in each case. In addition, the GI50 in the assay with IGROV1 ovarian, in the assay with HS 578T breast, in the assay on UACC-257 melanoma and in the assay on SK-MEL-5 melanoma was more than 100 µM in each case. Further, the TGI in the assay with HOP-62 NSCLC, in the assay with K-562 leukemia, in the assay on U251 CNS, in the assay on PC-3 prostate, in the assay with HL-60(TB) leukemia and in the assay with HCT-116 colon was more than 100 µM in each case. In addition, the TGI in the assay with IGROV1 ovarian, in the assay with HS 578T breast, with UACC-257 melanoma and in the assay with SK-MEL-5 melanoma was more than 100 µM each time.

For `COc1ccc2c(c1)nc(N)c1c3cc(OC)c(OC)cc3cn21`, the TGI in the assay with HOP-62 NSCLC is 16.9 µM; with K-562 leukemia, 11.7 µM; with U251 CNS, 14.6 µM; in the assay on PC-3 prostate, 16 µM; in the assay with HL-60(TB) leukemia, 0.622 µM; in the assay on HCT-116 colon, 13.7 µM. Further, the TGI stood at 20.1 µM with IGROV1 ovarian, 32.3 µM with HS 578T breast, 27.2 µM in the assay with UACC-257 melanoma and 0.987 µM in the assay on SK-MEL-5 melanoma. Further, the GI50 was less than 0.01 µM in the assay with K-562 leukemia; 0.118 µM in the assay on U251 CNS; 0.196 µM in the assay on HL-60(TB) leukemia; less than 0.01 µM in the assay with HCT-116 colon; 0.249 µM in the assay with IGROV1 ovarian; 0.159 µM in the assay on HS 578T breast. Moreover, the GI50 in the assay on UACC-257 melanoma was 11.4 µM; in the assay on SK-MEL-5 melanoma, 0.0645 µM.

Consider `COc1ccccc1C1=C2C(=O)N(C)C(c3ccccc3OC)=C2C(=O)N1C`, for which the TGI in the assay on HOP-62 NSCLC is 43.9 µM; in the assay on K-562 leukemia, more than 100 µM; in the assay on U251 CNS it was more than 100 µM; in the assay with PC-3 prostate, more than 100 µM; with HL-60(TB) leukemia, more than 100 µM; in the assay on HCT-116 colon it was more than 100 µM. The TGI in the assay with IGROV1 ovarian was more than 100 µM; in the assay on HS 578T breast, 97.1 µM; in the assay on UACC-257 melanoma, more than 100 µM; in the assay with SK-MEL-5 melanoma it was more than 100 µM.

Turning to `CN(C)NC1=NS(=O)(=O)c2cc3c(cc2S1)N(N(C)C)C(=O)c1cc2c(cc1N(N(C)C)C3=O)SC(NN(C)C)=NS2(=O)=O`, the TGI in the assay on HOP-62 NSCLC, in the assay with K-562 leukemia, in the assay with U251 CNS, with PC-3 prostate, with HL-60(TB) leukemia and with HCT-116 colon was more than 10 µM each time. The TGI with IGROV1 ovarian, with HS 578T breast, with UACC-257 melanoma and with SK-MEL-5 melanoma was more than 10 µM in each case.

On to `O=C1/C(=C/c2ccc(O)c([N+](=O)[O-])c2)CCC/C1=C\c1ccc(O)c([N+](=O)[O-])c1`, for which the GI50 with HOP-62 NSCLC was 25 µM; in the assay on K-562 leukemia it was 20.9 µM; in the assay on U251 CNS it was 14 µM; with PC-3 prostate, 9.12 µM; with HL-60(TB) leukemia it was 16.7 µM; with HCT-116 colon, 26.8 µM. Besides, the GI50 in the assay with IGROV1 ovarian is 15.2 µM; in the assay on UACC-257 melanoma, 15.5 µM; in the assay on SK-MEL-5 melanoma, 14.7 µM. Besides, the TGI was 28 µM and > 100 µM in the assay with HOP-62 NSCLC; 50 µM and 64.4 µM in the assay with K-562 leukemia; 18.3 µM and 26.9 µM in the assay with U251 CNS; 50 µM and 22.8 µM in the assay on PC-3 prostate; 50 µM and 45.1 µM in the assay on HL-60(TB) leukemia; 18.7 µM and > 100 µM with HCT-116 colon. Moreover, the TGI in the assay with IGROV1 ovarian was 17 µM and 28.5 µM; in the assay on HS 578T breast, 60.3 µM; in the assay with UACC-257 melanoma it was 44.3 µM and 37.7 µM; with SK-MEL-5 melanoma it was 17.4 µM and 31.5 µM.

For the molecule `Nc1nc2cc(CNc3ccc(C(=O)O)cc3)ccc2nc1-c1ccccc1`, the TGI in the assay on HOP-62 NSCLC, with K-562 leukemia, in the assay with U251 CNS, in the assay on PC-3 prostate, in the assay with HL-60(TB) leukemia and in the assay on HCT-116 colon was more than 100 µM throughout. In addition, the TGI in the assay on IGROV1 ovarian, with HS 578T breast, in the assay on UACC-257 melanoma and with SK-MEL-5 melanoma was more than 100 µM each time.

On to `Nc1ccc(C(=O)c2ccc(N)c(Br)c2)cc1Br`, for which the GI50 is 0.538 µM in the assay with HOP-62 NSCLC; 0.271 µM with K-562 leukemia; 0.419 µM with U251 CNS; 0.392 µM with PC-3 prostate; 0.326 µM in the assay with HL-60(TB) leukemia; 0.461 µM in the assay with HCT-116 colon. The GI50 in the assay with IGROV1 ovarian is 0.474 µM; with HS 578T breast it was 0.345 µM; in the assay with UACC-257 melanoma, 14.4 µM; in the assay with SK-MEL-5 melanoma it was 0.372 µM. Also, the TGI is 22.7 µM with HOP-62 NSCLC; 22.2 µM in the assay with K-562 leukemia; 18.3 µM in the assay with U251 CNS; more than 63.4 µM with PC-3 prostate; 2.8 µM in the assay with HL-60(TB) leukemia; 11.6 µM with HCT-116 colon. Also, the TGI with IGROV1 ovarian is 18.4 µM; in the assay on UACC-257 melanoma, more than 100 µM; in the assay on SK-MEL-5 melanoma, 17.9 µM.

For `OC(C1=C/C(=C\c2ccncc2)c2ccccc21)c1ccncc1` (stereo unspecified), the TGI in the assay on HOP-62 NSCLC is 31.6 µM; in the assay with K-562 leukemia it was 28.1 µM; in the assay on U251 CNS, 31.4 µM; in the assay on PC-3 prostate, 32.9 µM; with HL-60(TB) leukemia, 15.7 µM; with HCT-116 colon it was 28.2 µM. Also, the TGI was 52.4 µM in the assay on IGROV1 ovarian, more than 54.1 µM with HS 578T breast, 19.1 µM with UACC-257 melanoma and 13 µM in the assay on SK-MEL-5 melanoma.
